The values below come from patent publication US8148371B2, “Adenine compound and use thereof” (Dainippon Sumitomo Pharma Co., Ltd., priority 2002, dated 2012).

Structures are written as SMILES. Like-named read-outs stand apart in the source and are kept apart here. Marks after values point to notes of the source that are not given here.

Series [1] relates to cells of rat spleen. In words: cells. The class given is cell-based, SD rat. Conditions: 24 h, read-out: Minimum effective concentration (interferon inducing activity).
The test system of series [2] is cells of mouse spleen. Description: cells. The series is classed as cell-based, C3H/HeJ mouse. Conditions: for minimal effective concentration: Mus musculus, 24 h, read-out: Minimum effective concentration (interferon inducing activity).
Series [3] can be described thus: Metabolic stability on liver S9 of rat. Conditions: 37° C.
Method: The compound of the present invention is added to liver S9 solution, and the mixture is incubated at 37±0.5° C. for 5 minutes to 2 hours. By quantitatively analyzing at the definite interval the amount of the compound of the present invention remaining in the liver S9 solution with HPLC (high performance liquid chromatography), etc., the constant of quenching velocity is calculated and the half life is calculated.
The reaction on river S9 of a rat was carried out on a 96-well plate by using a robot for screening by Tecan Company. S9 solution was prepared by adding to 10 ml of liver S9 of a rat, 20 ml of 250 mM Kpi (pH 7.4) and 20 ml of deionized water. Cofactor solution was prepared by dissolving NADPH (220 mg) in deionized water (40.5 ml) to give finally a 6 mM solution. IS (Internal Standard) solution was prepared by adding 300 μL of IS solution (1 mM DMSO solution) to 30 ml of acetonitrile solution (100 times dilution). The test compound (1 μM DMSO solution) was dissolved in an incubator at 37° C., 35 μL of it was poured into each well of a 96-well plate (24 samples/plate and then, plates (a sample plate, a 96 well-plate for dilution, deep well plates for reaction and recovering, a plate for extraction of the solid phase) and the test samples (S9 solution, Cofactor solution, IS (Internal Standard) solution, Stop solution, acetonitrile for elution) were set to the specified position in the booth of the robot. The reaction started (the concentration of the test compound was 1 μM) and the mixture was incubated at 37° C. under stirring. The solid phase was extracted and at the same time the internal standard for analysis was added. To the recovered sample (200 μL/well) was added 50 μL of acetonitrile per each well and to 2 plates of FALCON Deep well were poured 100 μL of the solution per well. By subjecting to the LC/MS analysis, the chromatogram of the test sample and the internal standard were described and the peak area was calculated. And then, the stability (residual rate after reaction) was calculated by the internal standard method.
Series [4] concerns plasma esterase. Conditions: rat plasma, 37° C., 15 minutes.
Method: The compound of the present invention is added to the serum solution, and the mixture is incubated at 37±0.5° C. for 5 minutes to 2 hours. By quantitatively analyzing at the definite interval the amount of the compound of the present invention remaining in the serum solution with HPLC (high performance liquid chromatography), etc., the constant of quenching velocity calculated and the half life is calculated.
The serum herein means the supernatant fraction obtained by excluding hemocytes and blood coagulation factor from blood by centrifugation, etc. The serum diluted with buffer, etc. can be used.
The metabolic stability of the test compound was presented by the residual amount (%) per the concentration of pre-metabolization.
Series [5] has as its system leucocytes in BALF. Description: Amount of leucocytes in bronchoalveolar lavage fluid (BALF) on an asthma modeled mouse. Conditions: 10 mg/kg nasally, BALF 18 hours after ovalbumin challenge. The series is classed as in vivo, C57BL/6 mouse. On the procedure:
(§1) C57BL/6 mouse was immunized by dermally administering denatured ovalbumin by heating (40 mg). Fourteen days later after the first immunization, ovalbumin (100 μg) was nasally busted. Twenty one days later after the first immunization, the solution (1 ml/kg) prepared by suspending the test compound (10 mg/kg) in physiological saline was nasally administered (10 μl/10 g/body weight). After 2 hours ovalbumin (100 μg) was nasally challenged. After 18 hours, bronchoalveolar lavege fluid (BALF) was collected, and the total number of leucocytes in BALF and fractioned leukocyte in the cytospin sample were measured. By ELISA method, IL-4 and IL-5 in the supernatant were measured. The number of leucocytes (inhibition %) was shown in Table 5 and the production inhibition activity of IL-4 and IL-5 (inhibition % to control) was shown in Table 6.

For series [6], the system named is IL-4. Description: IL-4 in BALF supernatant on an asthma modeled mouse (ELISA). The class given is in vivo, C57BL/6 mouse. The note with it: 10 mg/kg nasally. On the procedure: as §1
(ELISA stands for enzyme-linked immunosorbent assay.)

In series [7] the test system is IL-5. In words: IL-5 in BALF supernatant on an asthma modeled mouse (ELISA). The series is classed as in vivo, C57BL/6 mouse. Conditions: 10 mg/kg nasally. As to the method:
as §1

Series [8] deals with type 2 herpes virus (HSV-2). Description: Anti HSV activity in mouse infected with HSV-2 in its vagina. The class given is in vivo, BALB/c female mouse. The note with it: 9 days after virus-infection. On the procedure:
Compound A was spread to a vagina of a female mouse (BALB/c) to which previously Depo-Provera was administered, and on next day, HSV-2 was infected to the vagina. Nine days later, the rate of survival or death of mice was observed and compared.
On the back of a BALB/c female mouse (6 weeks old: Nippon SLC) 3 mg of Depo-Provera/mouse (Registered Trade Mark) was dermally administered and the mice were fed for 6 days. By doing this the sexual cycle was tuned and the sensitivity between mice to herpes virus was balanced. The slime of mouse vagina was removed by a cotton swab for baby, and the ointment (20 mg) containing 0.5% of compound of Example 20 or the ointment (10 mg) containing 5% of compound of Example 20 was spread to the vagina (corresponding 0.1 mg and 0.5 mg per mouse of the compound of Example). As a control, the placebo ointment not containing the compound was spread as well. As the ointment, the base consisting of 80% Vaseline and 20% liquid paraffin were used. On the next day, the slime of mouse vagina was removed by a cotton swab for baby and then, 2×10^4 pfu type 2 herpes virus (HSV-2)(10 μl/mouse) was administered to the vagina by pipette. After infection the death or survival of the mice was observed.

Setting [9] is: rat liver S9, test compound 1 μM.
Where [10] appears, read: rat liver S9, test compound 10 μM (*).

Consider `CCCCOc1nc(N)c2nc(O)n(Cc3ccc(CC(=O)OC(C)C)cc3)c2n1` [Example 21, 2-Butoxy-8-hydroxy-9-(4-isopropoxycarbonylmethylbenzyl)adenine], for which the minimal effective concentration in series [1] turned out to be 0.001 µM; in series [2] it was 0.003 µM. The Residual rate in series [3] (setting [9]) is on record as 26%; in series [4] (test compound 1 μM (*)), 0* %.

For `CCCCOc1nc(N)c2nc(O)n(Cc3cccc(C(=O)OCCN(C)C)c3)c2n1` [Example 7, 2-Butoxy-8-hydroxy-9-{3-(2-dimethylaminoethoxycarbonyl)benzyl}adenine], in series [2], the minimal effective concentration was under 0.001 µM. The compound also came in with a Residual rate in series [4] (test compound 10 μM) of 1%.

Regarding `CCOC(=O)C(C)Sc1nc(N)c2nc(O)n(Cc3ccccc3)c2n1` (stereo not drawn) [Example 53, 9-Benzyl-8-hydroxy-2-(1-ethoxycarbonylethyl)thioadenine], the minimal effective concentration in series [2] worked out at 0.1 µM. In addition, the results for the Residual rate in series [3] (setting [9]) and in series [4] (test compound 10 μM) were 2% and 0%, respectively.

For `COC(=O)CCSc1nc(N)c2nc(O)n(Cc3ccccc3)c2n1` [Example 54, 9-Benzyl-8-hydroxy-2-(2-methoxycarbonylethyl)thioadenine], the figures for the minimal effective concentration in series [1] and in series [2] were 0.01 µM and 0.1 µM, respectively. The same compound came in with a Residual rate in series [4] (test compound 10 μM) of 0%.

`CCCCOc1nc(N)c2nc(O)n(Cc3cccc(C(=O)OCCO)c3)c2n1` [Example 6, 2-Butoxy-8-hydroxy-9-{3-(2-hydroxyethoxycarbonyl)benzyl}adenine]: in series [2], the minimal effective concentration was under 0.001 µM. In addition, in series [4] (test compound 10 μM), the Residual rate is 14%.

For `COC(=O)CSc1nc(N)c2nc(O)n(Cc3ccccc3)c2n1` [Example 40, 9-Benzyl-8-hydroxy-2-(methoxycarbonylmethyl)thioadenine], the minimal effective concentration in series [1] and in series [2] was 0.01 µM throughout. This compound displayed a Residual rate in series [4] (test compound 10 μM) of 0%.

For `CC(=O)OCCNc1nc(N)c2nc(O)n(Cc3ccc(C)nc3)c2n1` [Example 33, 2-(2-Acetoxyethylamino)-8-hydroxy-9-{(6-methyl-3-pyridyl)methyl}adenine], the minimal effective concentration in series [2] is 0.1 µM. Also, the Residual rate in series [3] (setting [10]) is recorded as 2* %.

In the case of `Nc1nc(SCC(=O)N2CCCCC2)nc2c1nc(O)n2Cc1ccccc1` [Example 51, 9-Benzyl-8-hydroxy-2-(1-piperidinocarbonylmethyl)thioadenine], the minimal effective concentration in series [2] was 0.1 µM. In series [3] (setting [9]), this compound displayed a Residual rate of 0%.

As to `CCC(=O)OCC(=O)[C@@]1(OC(=O)CC)[C@@H](C)C[C@H]2[C@@H]3CCC4=CC(=O)C=C[C@]4(C)[C@@]3(Cl)[C@@H](O)C[C@@]21C` [Beclometasone dipropionate], in series [5], the “Acidophile (inhibition %)” value is 89%, the “Netrophile (inhibition %)” value amounted to 90% and the “Number of total leukocyte (inhibition %)” value is 92%. For the same compound, the “IL-4 production inhibition activity (inhibition % to control)” value in series [6] came out at 97%. Besides, in series [7], the “IL-5 production inhibition activity (inhibition % to control)” value was 100%.

`CCNC(=O)CSc1nc(N)c2nc(O)n(Cc3ccccc3)c2n1` [Example 50, 9-Benzyl-2-(ethylcarbamoylmethyl)thio-8-hydroxyadenine]: in series [2], the minimal effective concentration stood at 0.1 µM. The Residual rate in series [3] (setting [9]) worked out at 7%.

As for `CCOC(=O)CC(=O)CSc1nc(N)c2nc(O)n(Cc3ccccc3)c2n1` [Example 58, 9-Benzyl-2-(ethoxycarbonylmethylcarbonylmethyl)thio-8-hydroxyadenine], the minimal effective concentration in series [2] was determined as 0.1 µM. The Residual rate in series [4] (test compound 10 μM) is 0%.

Regarding `COC(=O)OCCNc1nc(N)c2nc(O)n(Cc3ccc(C)nc3)c2n1` [Example 34, 8-Hydroxy-2-(2-methoxycarbonyloxyethylamino)-9-{(6-methyl-3-pyridyl)methyl}adenine], the minimal effective concentration in series [2] was found to be 0.1 µM. In addition, the Residual rate is listed as 1* % in series [3] (setting [10]) and 11% in series [4] (test compound 10 μM).

For the compound `CCCCOc1nc(N)c2nc(O)n(Cc3ccc(CC(=O)OC)cc3)c2n1` [Example 20, 2-Butoxy-8-hydroxy-9-(4-methoxycarbonylmethylbenzyl)adenine], the minimal effective concentration in series [1] came to 0.0001 µM; in series [2], 0.003 µM. This compound yielded a survived rate in series [8] (5% ointment (0.5 mg per mouse) spread to vagina) of 100%. Also, the “survived rate comparing with a control group” value in series [8] (ointments containing 0.5% and 5%) is recorded as “clearly higher survived rate”. Besides, the Residual rate in series [3] (setting [9]) and in series [4] (test compound 10 μM) was 0% each time.

Consider `Nc1nc(SC2CCOC2=O)nc2c1nc(O)n2Cc1ccccc1` (stereo not drawn) [Example 59, 9-Benzyl-2-(2-butyrolactino)thio-8-hydroxyadenine], for which the “Minimum effective concentration (interferon inducing activity)” value in series [2] came out at 0.1 µM. The values for the Residual rate in series [3] (setting [9]) and in series [4] (test compound 10 μM) were 7% and 0%, respectively.

As for `COC(=O)Cc1nc(N)c2nc(O)n(Cc3ccccc3)c2n1` [Example 29, 9-Benzyl-8-hydroxy-2-methoxycarbonylmethyladenine], the minimal effective concentration in series [1] and in series [2] was 0.01 µM throughout. In series [4] (test compound 10 μM), this compound returned a Residual rate of 0%.

`CCCCOc1nc(N)c2nc(O)n(Cc3ccc(N4CCCC(C(=O)OCC)C4)nc3)c2n1` (stereo not drawn) [Example 25, 2-Butoxy-8-hydroxy-9-{6-(3-ethoxycarbonyl-1-piperidyl)-3-pyridylmethyl}adenine]: the minimal effective concentration in series [2] is 0.003 µM. Further, the Residual rate in series [4] (test compound 10 μM) amounted to 16%.

Turning to `CCCCOc1nc(N)c2[nH]c(=O)n(Cc3cccc(C(=O)OC)c3)c2n1` [Example 1, 2-Butoxy-8-hydroxy-9-(3-methoxycarbonylbenzyl)adenine], the minimal effective concentration in series [1] was 0.0003 µM; in series [2], under 0.001 µM. Also, the Residual rate in series [3] (setting [9]) turned out to be 7%; in series [4] (test compound 10 μM), 32%.

Turning to `COC(=O)OCCOc1nc(N)c2nc(O)n(Cc3ccc(C)nc3)c2n1` [Example 38, 2-{2-(Methoxycarbonyloxy)ethoxy}-8-hydroxy-9-{(6-methyl-3-pyridyl)methyl}adenine], the minimal effective concentration in series [2] is 0.01 µM. Further, in series [4] (test compound 10 μM), the Residual rate is on record as 2%.

Regarding `CCCCOc1nc(N)c2nc(O)n(Cc3ccc(N4CCC(C(=O)OCC)CC4)nc3)c2n1` [Example 24, 2-Butoxy-8-hydroxy-9-{6-(4-ethoxycarbonyl-1-piperidyl)-3-pyridylmethyl}adenine], the results for the minimal effective concentration in series [1] and in series [2] were 0.0003 µM and under 0.001 µM, respectively. In series [4] (test compound 10 μM), the Residual rate was found to be 7%.

With `CCCCOc1nc(N)c2nc(O)n(Cc3cccc(CC(=O)OC)c3)c2n1` [Example 19, 2-Butoxy-8-hydroxy-9-(3-methoxycarbonylmethylbenzyl)adenine], the minimal effective concentration in series [1] was 0.0003 µM; in series [2], under 0.001 µM.

In the case of `COC(=O)CNc1nc(N)c2nc(O)n(Cc3ccc(C)nc3)c2n1` [Example 32, 8-Hydroxy-2-methoxycarbonylmethylamino-9-{(6-methyl-3-pyridyl)methyl}adenine], in series [2], the minimal effective concentration is 0.01 µM. The same compound registered a Residual rate in series [4] (test compound 10 μM) of 0%.

In the case of `CCCCOc1nc(N)c2nc(O)n(Cc3cccc(CC(=O)O)c3)c2n1` [Comparative example 5, 2-Butoxy-8-hydroxy-9-(3-carboxymethylbenzyl)adenine, reference compound], the minimal effective concentration in series [1] is 0.01 µM; in series [2] it was 0.1 µM.

In the case of `Nc1nc(SCC(=O)OCC(F)(F)F)nc2c1nc(O)n2Cc1ccccc1` [Example 48, 9-Benzyl-2-(2,2,2-trifluoroethoxycarbonylmetyl)thio-8-hydroxyadenine], in series [2], the “Minimum effective concentration (interferon inducing activity)” value came to 0.3 µM. Also, the Residual rate in series [3] (setting [9]) and in series [4] (test compound 10 μM) was 0% each time.

In the case of `CCCCOc1nc(N)c2nc(O)n(Cc3ccc(C(=O)OC(C)C)o3)c2n1` [Example 16, 2-Butoxy-8-hydroxy-9-(5-isopropoxycarbonylfurfuryl)adenine], the minimal effective concentration in series [2] is 0.003 µM. In addition, the Residual rate in series [3] (setting [9]) and in series [4] (test compound 10 μM) was 0% in each case.

On to `CCOC(=O)Cc1nc(N)c2nc(O)n(Cc3ccccc3)c2n1` [Example 30, 9-Benzyl-2-ethoxycarbonylmethyl-8-hydroxyadenine], for which the minimal effective concentration in series [1] and in series [2] was 0.01 µM throughout. For the same compound, the values for the Residual rate in series [3] (setting [9]) and in series [4] (test compound 10 μM) were 4% and 0%, respectively.
